In the Deep4Chem optical property database:
Where “and” joins values, the source holds several entries; their conditions need not be identical. Equal entries are not always repeated. Blank lines part the entries; values can stand above or below the compound they belong to.

Assay: photoluminescence quantum yield (fraction); solvent given as SMILES

photoluminescence quantum yield (in C1CCOC1): 0.0027
photoluminescence quantum yield (in C1COCCO1): 0.0021
photoluminescence quantum yield (in CC#N): 0.0037
photoluminescence quantum yield (in CCCCCCC): 0.0082
photoluminescence quantum yield (in CCO): 0.0035
photoluminescence quantum yield (in CO): 0.0024
photoluminescence quantum yield (in O): 0.2
SMILES: CC1(C)CC(=O)C2=C(C1)Oc1ccc3ccc(O)cc3c1C2c1ccccn1 (stereo unspecified)

photoluminescence quantum yield (in ClCCl): 0.6
SMILES: Cn1c2ccccc2c2cc(/C=C/C3=[O+][B-](F)(F)OC(/C=C/c4ccc5c(c4)c4ccccc4n5C)=C3c3ccccc3)ccc21

SMILES: NNC(=O)NNN1C(=O)c2cc(S(=O)(=O)[O-])cc3c(N)c(S(=O)(=O)[O-])cc(c23)C1=O
photoluminescence quantum yield (in C1COCCO1): 0.06
photoluminescence quantum yield (in CC#N): 0.49
photoluminescence quantum yield (in CC(C)=O): 0.29
photoluminescence quantum yield (in CC(C)O): 0.62
photoluminescence quantum yield (in CCCCCCCCO): 0.75
photoluminescence quantum yield (in CCO): 0.54
photoluminescence quantum yield (in CCOC(C)=O): 0.03
photoluminescence quantum yield (in CO): 0.25
photoluminescence quantum yield (in CS(C)=O): 0.59
photoluminescence quantum yield (in O): 0.21
photoluminescence quantum yield (in OCCO): 0.5
photoluminescence quantum yield (in c1ccncc1): 0.26

photoluminescence quantum yield (in CS(C)=O): 0.75
SMILES: COc1ccc2cc(-c3cc4ccc(OC)cc4oc3=O)oc2c1

SMILES: CCN1c2ccc(/C=N/Nc3ccccn3)cc2Sc2cc(-c3cccc4ccccc34)ccc21
photoluminescence quantum yield (in C1CCOC1): 0.2
photoluminescence quantum yield (in CS(C)=O): 0.35
photoluminescence quantum yield (in Cc1ccccc1): 0.1
photoluminescence quantum yield (in ClCCl): 0.3

SMILES: CC1(C)c2ccccc2N(c2ccc(-c3nnc(-c4cc(-c5ccccc5)c(-c5ccccc5)c(-c5ccccc5)c4-c4ccccc4)o3)cc2)c2ccccc21
photoluminescence quantum yield (in Cc1ccccc1): 0.235
photoluminescence quantum yield (in c1ccc(-n2c(-c3c(-n4c5ccccc5c5ccccc54)cccc3-n3c4ccccc4c4ccccc43)nc3ccccc32)cc1): 0.359

photoluminescence quantum yield (in CC#N): 0.02
photoluminescence quantum yield (in CCO): 0.35
SMILES: Cc1cc(=O)oc2cc3cc(O)ccc3cc12

photoluminescence quantum yield (in ClCCl): 0.058
SMILES: CCCc1c(C(=O)c2ccc3c4c(cccc24)-c2cccc4c2C3CC=C4)c2ccc3cccc4c5cccc6ccc1c(c65)c2c34 (stereo unspecified)

SMILES: CCCCCCCCCCCCOc1ccc(C#Cc2ccc(C#Cc3ccc(OCCCCCCCCCCCC)c(OCCCCCCCCCCCC)c3)c3nc4c5ccccc5c5ccccc5c4nc23)cc1OCCCCCCCCCCCC
photoluminescence quantum yield (in C1CCOC1): 0.23
photoluminescence quantum yield (in Cc1ccccc1): 0.19
photoluminescence quantum yield (in ClCCl): 0.26

SMILES: CC1(C)c2ccccc2N2c3ccccc3C3(c4cc(C#N)ccc4-c4ccc(C#N)cc43)c3cccc1c32
photoluminescence quantum yield (in Cc1ccccc1): 0.71

photoluminescence quantum yield (in CCO): 0.52
photoluminescence quantum yield (in ClC(Cl)Cl): 0.26
SMILES: CCOc1ccc2c(-c3nc(-c4ccccc4Cl)no3)cc(=O)oc2c1

photoluminescence quantum yield (in c1ccccc1): 0.035
SMILES: CCOC(=O)CSc1nc(C)c(C)c(C#N)c1C#N

SMILES: N#Cc1ccc(/C=C2\OC(=O)c3cc(N)ccc32)cc1
photoluminescence quantum yield (in CC#N): 0.062
photoluminescence quantum yield (in CC(C)=O): 0.05
photoluminescence quantum yield (in CC(C)CO): 0.17
photoluminescence quantum yield (in CC(C)O): 0.16
photoluminescence quantum yield (in CCCO): 0.14
photoluminescence quantum yield (in CCO): 0.13
photoluminescence quantum yield (in CCOC(C)=O): 0.047
photoluminescence quantum yield (in CCOCC): 0.031
photoluminescence quantum yield (in CO): 0.11

photoluminescence quantum yield (in ClCCl): 0.33
SMILES: CC(C)(C)c1ccc(-c2cc(-c3ccc(-c4cc(-c5ccc(C(C)(C)C)cc5)c(C(=O)NCc5cccs5)s4)s3)sc2C(=O)NCc2cccs2)cc1

SMILES: N#Cc1c(-n2c3ccccc3c3ccccc32)c(C#N)c(-n2c3ccccc3c3ccccc32)c(-n2c3ccccc3c3ccccc32)c1-n1c2ccccc2c2ccccc21
photoluminescence quantum yield (in Cc1ccccc1): 0.938 and 0.88
photoluminescence quantum yield (in c1ccc2c(c1)c1ccccc1n2-c1ccc(-c2ccc(-n3c4ccccc4c4ccccc43)cc2)cc1): 0.83

photoluminescence quantum yield (in ClCCl): 0.68
SMILES: c1cc(-c2ccc(-n3c4ccccc4c4ccccc43)cc2)c2nsnc2c1

SMILES: N#Cc1ccc(-n2cccc2)cc1
photoluminescence quantum yield (in C1CCOC1): 0.024
photoluminescence quantum yield (in CC#N): 0.024
photoluminescence quantum yield (in CCCCCC): 0.077
photoluminescence quantum yield (in CCOCC): 0.023
photoluminescence quantum yield (in ClCCl): 0.022

SMILES: COc1ccc2c3c(cccc13)C(=O)c1ccccc1-2
photoluminescence quantum yield (in CC#N): 0.62
photoluminescence quantum yield (in CC(C)=O): 0.56
photoluminescence quantum yield (in CC(C)O): 0.54
photoluminescence quantum yield (in CCCCOCCCC): 0.01
photoluminescence quantum yield (in CCOC(C)=O): 0.23
photoluminescence quantum yield (in CCOCC): 0.05
photoluminescence quantum yield (in CO): 0.45
photoluminescence quantum yield (in Cc1ccccc1): 0.1
photoluminescence quantum yield (in Clc1ccccc1): 0.41
photoluminescence quantum yield (in N#Cc1ccccc1): 0.69
photoluminescence quantum yield (in O=C1CCCCC1): 0.57
